Data from patent US11584712B2, “Alkylamine-substituted perthiocarbamates as dual precursors to hydropersulfide and carbonyl sulfide” (The Johns Hopkins University, priority 2020, dated 2023).
Several values for one entry are separate records, joined by “and”; a condition that tells them apart may be missing. Equal entries are not always repeated. Entries after “also recorded” stand apart in the source; their conditions may differ.

Tests used:
Type in all cases: physicochemical
[1] = RSSH generation in the presence of N-acetyl cysteine by UPLC-MS; conditions: NAC 500 μM, 37° C.; for Byproduct % (yield of cyclic urea 2a-d): precursor 100 μM, pH 7.4 ammonium bicarbonate buffer with DTPA
Procedure: […] The resulting mixture was incubated at 37° C. An aliquot (200 μL) of reaction mixture was withdrawn at specified time points and quenched with 1% formic acid (200 μL). 3-Amino-benzoic acid (50 μM) was added to each sample as internal standard prior to UPLC-MS analysis. To quantify 2a-d generated from these precursors, a calibration curve for each individual cyclic urea with known concentrations was independently generated.
[…] The resulting mixture was incubated at 37° C. An aliquot ([…]) of reaction mixture was withdrawn at specified time points and quenched with 1% formic acid (200 μL). 3-amino-benzoic acid (50 μM) was added to each sample as internal standard prior to UPLC-MS analysis. To quantify 2a-d generated from these precursors, the calibration curve of each individual cyclic urea with known concentrations was independently generated.

[2] = COS release using membrane inlet mass spectrometry (MIMS); conditions: for COS release (m/z=60 signal): precursor 50 μM, pH 7.4 phosphate buffer saline with DTPA, 37° C.
Procedure: (§1) COS was analyzed using a Hiden HPR-40 MIMS system with a sample cell and membrane probe that have been optimized to detect gases dissolved in aqueous solution as described previously. Cline et al., 2011. A stock solution of N-acetyl-cysteine (25 mM) was prepared in DI water. RSSH precursor stock solutions (5 mM) were prepared in DMSO. These solutions were degassed by purging with nitrogen for 10 min before COS release analysis. Typically, 20 mL phosphate buffer solution (10 mM) was added to the sample cell, degassed and purged with a continuous flow of argon for 15 min. N-acetyl cysteine (200 μL, 25 mM) and RSSH precursor (200 μL, 5 mM) were then injected using a gas tight syringe and ion current at m/z 60 (COS^+) were collected for 2 h (source pressure was approximately 1×10^−7 to 5×10^−7 Torr).
as §1, with “(COS*)” for “(COS^+)”

[3] = Kinetics of RSSH release from precursors monitored by HPLC (HPE-IAM trapping); conditions: for Hydropersulfide Yield (%): precursor 100 μM, HPE-IAM 5 mM, pH 7.4 phosphate buffer with DTPA
Procedure: (§2) Precursors 7a-d were dissolved in DMSO to afford 10 mM stock solutions. HPE-IAM was dissolved in DMSO to obtain a 100 mM stock solution. […] This solution was pre-incubated for 10 min at 37° C. and then precursor 7a-d (30 μL, 10 mM) were independently added into the mixture. The resulting solution was incubated at 37° C. At different time points, an aliquot of 200 μL was taken and quenched with 200 μL […] solution. These samples were stored at 0° C. until HPLC analysis was performed. The sample (20 μL) was injected into a high-performance liquid chromatography (HPLC) equipped with Phenomenex C-18 reverse phase column (250 mm×4.6 mm, 5 μm). HPLC Method: mobile phase A (H2O) and mobile phase B (ACN), flow rate: 1 mL/min, run time: 20 min, the gradient elution method: 10% to 40% B from 0 to 12 min, 40% to 80% B from 12 to 20 min. The elution was monitored by a UV detector at 275 nm. A calibration curve was generated using RSS-HPE-AM 9 to quantify RSSH generation from 7a-d.
as §2, with “by a variable UV detector” for “by a UV detector”

| Compound | RSSH release under acidic conditions ([1]; 7b 100 μM, pH 6.0 ammonium acetate buffer 50 mM, 12 h) | Byproduct % (yield of cyclic urea 2a-d) [1] | COS release in the presence of GSH compared with NAC ([2]; pH 7.4, GSH) | COS release (m/z=60 signal) ([2]; NAC 0.25 mM (5 equiv.)) | Hydropersulfide Yield (%) ([3]; 37° C.) | COS release (m/z=60 signal) ([2]; without NAC) | rate constant k of RSSH release ([3]; pH 6.0) | first-order rate constant k of RSSH release (RSS-HPE-AM 9 generation) ([3]; pH 7.4 phosphate buffer, HPE-IAM, 37° C., HPLC) | rate constant k of RSSH release ([3]; pH 8.0) |
| --- | --- | --- | --- | --- | --- | --- | --- | --- | --- |
| COC(=O)C(NC(C)=O)C(C)(C)SSC(=O)N(C)CCN (stereo not drawn) [Precursor 7b, 2-(((3-acetamido-4-methoxy-2-methyl-4-oxobutan-2-yl)disulfannecarbonyl)(methyl)amino)ethan-1-aminium] | still observed, albeit at a slower rate; also recorded: slow RSSH release under acidic conditions | 58% and 58 ± 0.7% | slightly higher/faster COS release | increased production of COS | 94 ± 1% | – | – | – | – |
| 3-(((3-acetamido-4-methoxy-2-methyl-4-oxobutan-2-yl)disulfannecarbonyl)(methyl)amino)-N-methylpropan-1-aminium [Precursor 7c] | – | 19.2 ± 0.5% | – | produce mainly COS | 90% and 90 ± 1% | – | – | – | – |
| CNCCN(C)C(=O)SSC(C)(C)C(NC(C)=O)C(=O)OC (stereo not drawn) [Precursor 7a, 2-(((3-acetamido-4-methoxy-2-methyl-4-oxobutan-2-yl)disulfannecarbonyl)(methyl)amino)-N-methylethan-1-aminium] | – | 87% and 87 ± 1% | – | small additional increase | 89% and 89 ± 3% | very small increase | 0.031 min⁻¹ | 0.505 min⁻¹ and 0.505 ± 0.019 min⁻¹ | 2.58 min⁻¹ |
